# Reference: paper PMC8767159, “Multiparameter Optimization of Trypanocidal Cruzain Inhibitors With In Vivo Activity and Favorable Pharmacokinetics” (Frontiers in Pharmacology, 2022)
# How the values were obtained:
# [1] = Fraction unbound by equilibrium dialysis; format: in vitro ADME; details: Table S5; fraction unbound
# Protocol: The fraction unbound (fu) ([Masimirembwa et al., 2003]) of the test compounds was determined after incubation with different media, namely, plasma, microsomes, and buffer with 10% FCS. Equilibrium dialysis was performed in a 96-well plate (HT-Dialysis, Gales Ferry, CT) in which each well was divided by a semipermeable membrane (12–14 kDa cutoff). The test compounds diluted in either plasma, microsome suspension, or buffer were added to one side of the membrane. Potassium phosphate buffer (50 mM, pH 7.4) was added to the other side of the membrane. A standard curve was used to calculate the compound concentration (fu) on each side of the membrane. Stock solutions of each compound were prepared in 100% DMSO to obtain a final concentration of 1 mM. The following compound concentrations were used: 1, 2, 20, 200, 2,000 and 5,000 nM. To 500 μl of medium, 0.5 μl of the compound stock solution was added, and this was applied to one side of the well. Each compound was evaluated in triplicate. Next, the plate was assembled, sealed, and incubated at 37°C under rotation (150 rpm) for 4 h. After the incubation period, the plates were subjected to LC-MS/MS.
# [2] = In vitro metabolic stability in human liver microsomes; format: in vitro ADME; details: for CLint (L/h/kg) Human: Table S5; for CLint_u (L/h/kg) Human: Table S5, CLint/fu
# Protocol: (§1) Isolated mouse (BD Gentest, Bedford, MA) and human liver microsomes (XenoTech, Kansas City, KS) ([Plant, 2004]) were added at a final concentration of 0.25 mg/ml to a solution containing 40 mM dibasic potassium phosphate and 10 mM monobasic potassium phosphate. Stock solutions of compounds at 5 mM were prepared in 100% DMSO. A 50:50 quenching solution of acetonitrile (ACN) and methanol (MeOH) was prepared. An NADPH solution was prepared at 10 mM. The preparations containing the microsomes were added to each well of the incubation plate (450 µl), which was then heated to 37°C for 10 min. The compounds were added to the respective wells of the test plate (2 µl). Then, 300 µl of the microsome preparation was added to each well of the test plate. The test plate was heated under gentle rotation for 5 min at 37°C. Next, 90 µl of the mixture contained in the test plate was added to the incubation plate, making a final volume of 540 µl. Samples were collected at the following incubation times: 0, 5, 10, 15, 20, and 30 min. To the 0 min sample plate, quenching solution (180 µl), NADPH (6 µl), and the incubation plate mixture (54 µl) were added to each well. The sample plate was then sealed, homogenized, and stored at 4°C. Then, 54 µl of the NADPH solution was added to the incubation plate, which was homogenized. Before the collection of each sample at the established times, 45 µl of the quenching solution was added to each well of the corresponding sample plates. After reaching the incubation times, 60 µl of the mixture contained in the incubation plate was added to the corresponding sample plates. The sample plates were then sealed and stored at 4°C. After the collection of the last sample (30 min), all sample plates were centrifuged at 3,800 rpm for 30 min. The supernatant from each well was collected and transferred to clean plates for mass spectrometry. Five to 10 µl of each sample was injected into an AB Sciex Triple Quad 5500 LC-MS/MS instrument.
# (§2) For the biotransformation experiments and analysis of metabolites in microsomes, an Ultra-High-Pressure Liquid Chromatography instrument (UHPLC, Thermo Accela, Waltham, MA) ([Spaggiari et al., 2014]) connected to an automatic sample injector and a 1250 series pump was used. The UHPLC system was connected to a Thermo Fisher (Waltham, MA) LTQ Orbitrap mass spectrometer. For all other analyses, an AB Sciex Triple Quad 5500 coupled to a UHPLC equipped with a UV 1290 diode detector (Agilent Technologies, Santa Clara, CA) and a CTC PAL self-collecting system (LEAP Technologies, Carrboro, NC) was used. Q1 MS positive ion mode (300–500 Da) was used to detect the ions of the parent compounds. The UV detector was operated in spectral mode (250–280 nm). A Hypersil Gold C18 (2.1 mm × 100 mm, 1.9 µm, Thermo Fisher) HPLC column was used. The mobile phases were solvent A (0.1% formic acid in water) and solvent B (0.1% formic acid in ACN). The flow was adjusted to 0.55 ml/min, and the injection volume was adjusted to […]. The gradient started with 1% solvent B for 0.4 min, reached 40% (solvent B) in 2.3 min and 95% (solvent B) in 0.67 min, was maintained for 0.5 min, and returned to the initial condition of 1%. This condition was maintained for 1 min before injection of the next sample. The peak area ratio (peak area of the test compounds/peak area of the control compounds) was converted to the percentage of remaining compound, with the 0 min time point ratio set to 100%. T½ and CLint were calculated from the percentage of remaining compound versus the incubation time. From the resulting function, the slope (k) was determined. The equations T1/2 (min) = ln(2)/k and CLint in vitro (μL/min/mg) = k*1000/0.25 were used to determine T½ and CLint.
# [3] = In vitro metabolic stability in mouse liver microsomes; format: in vitro ADME; details: for CLint (L/h/kg) Mouse: Table S5; for CLint_u (L/h/kg) Mouse: Table S5, CLint/fu
# Protocol: as §1, §2
# cruzain = biological target: T1, cruzain (Trypanosoma cruzi, UniProt P25779); experiment: Cruzain enzyme inhibition assay (cleavage of fluorogenic substrate Z-FR-AMC); format: biochemical; details: for inhibition at 100 µM: compound 100 µM, mean of three measures
# T1 construct: made in house; host or cells: Escherichia coli (strain M15)
# T1 sequence (P25779 123-337 limits assumed): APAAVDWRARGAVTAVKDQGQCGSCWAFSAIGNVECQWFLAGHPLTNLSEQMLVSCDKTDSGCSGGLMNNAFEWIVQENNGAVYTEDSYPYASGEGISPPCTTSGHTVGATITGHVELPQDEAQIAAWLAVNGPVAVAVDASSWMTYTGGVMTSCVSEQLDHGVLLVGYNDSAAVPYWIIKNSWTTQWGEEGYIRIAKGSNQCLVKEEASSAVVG
# Protocol: Pro-cruzain truncated at the C-terminus was expressed and purified using a previously described protocol ([Ferreira et al., 2019]). Escherichia coli (strain M15) cultures were grown overnight at 37°C and 200 rpm in Luria Bertani (LB) medium supplemented with ampicillin (100 μg/ml) and kanamycin (50 μg/ml). Next, the cultures were diluted 10-fold in fresh LB medium supplemented with 0.5 M NaCl, 0.2% glucose, 1 mM betaine, 0.5 M sorbitol, 100 μg/ml ampicillin, and 50 μg/ml kanamycin and incubated at 37°C and 200 rpm. At an optical density (OD600) of 0.9, the cultures were incubated at 47°C for 20 min to promote the expression of chaperones. Then, the expression of cruzain was induced by adding isopropyl β-D-thiogalactopyranoside (IPTG) to a final concentration of 0.2 mM, which was followed by overnight incubation of the cultures at 20°C and 200 rpm. Next, the cultures were centrifuged (5,000 rpm, 30 min, 4°C), and the cells were suspended in 50 ml of lysis buffer (300 mM NaCl, 50 mM Tris-HCl, and 1.6 mg/ml lysozyme, pH 8.0) per liter of culture and lysed by sonication (12 cycles of 30 s). This cell lysate was centrifuged (9,000 rpm, 30 min, 4°C), and the supernatant was collected. Cruzain was precipitated by incubation with 35% ammonium sulfate (2 h), and this suspension was centrifuged at 9,000 rpm for 30 min at 4°C. The precipitated cruzain was resuspended in lysis buffer, and the sample was dialyzed to eliminate ammonium sulfate. The soluble fraction of the dialysate was loaded on a Ni−NTA column (Qiagen, Hilden, Germany), and the contaminants were washed using washing buffer (300 mM NaCl, 50 mM Tris-HCl, and 10 mM imidazole, pH 8.0). Cruzain was eluted by applying an increasing imidazole gradient: 25, 50, 75, 100, and 250 mM. The fractions containing cruzain were pooled together and dialyzed against 1.5 L of 0.1 M acetate buffer, pH 5.5, and then concentrated to 0.5 mg/ml. Pro-cruzain was activated by incubation with activation buffer (100 mM sodium acetate, pH 5.5, 10 mM EDTA, 5 mM DTT, and 1 M NaCl) at 37°C. […] After activation, the enzyme was diluted 20-fold in binding buffer (20 mM sodium phosphate and 150 mM NaCl, pH 7.2) and added to thiopropyl Sepharose 6B resin (GE Healthcare Life Sciences, Pittsburgh, PA). After overnight incubation at 4°C, the resin was loaded on a column, and cruzain was eluted with binding buffer supplemented with 20 mM DTT. Fractions containing cruzain were pooled together and stored in 0.1 M sodium acetate, pH 5.5, at −80°C.
# Cruzain activity was followed by monitoring the cleavage of the fluorogenic substrate Z-Phe-Arg-aminomethyl coumarin (Z-FR-AMC), as previously described ([Ferreira et al., 2019]), using 96-well flat-bottom black plates and wavelengths of 355 nm for excitation and 460 nm for emission. All cruzain assays were performed in 0.1 M sodium acetate buffer with 5 mM dithiothreitol (DTT) and 0.01% Triton X-100, pH 5.5. […] The cleavage of the substrate was monitored for 5 min, and the activity was calculated based on the initial reaction rates compared with the rate of a DMSO control at 30°C. The IC50 values were independently calculated by considering the rate measurements for at least six inhibitor concentrations, each evaluated in triplicate. To determine the mechanism of cruzain inhibition, eight concentrations of the substrate Z-FR-AMC and four concentrations of the inhibitor were employed, each in triplicate. Kinetic parameters were determined using the SigmaPlot (Systat Software Inc., Erkrath, Germany) enzyme kinetics module. Compounds were tested in two or three independent experiments. All enzyme assays were performed using varying Triton X-100 concentrations (0, 0.01, and 0.1%) ([Ferreira et al., 2009]). Compound concentrations were 100 μM in the single-dose percentage inhibition assays.
SMILES,fu [1],CLint (L/h/kg) Human [2],CLint_u (L/h/kg) Human [2],CLint (L/h/kg) Mouse [3],CLint_u (L/h/kg) Mouse [3],"IC50 (cruzain; 1.5 nM cruzain, 5.0 µM Z-FR-AMC, mean ± SD of 2–3 assays, read-out: IC50 (µM) against cruzain)",inhibition at 100 µM (cruzain)
CC(=O)Nc1ccccc1OCC(=O)NCCc1nc2ccccc2[nH]1 [Compound 43],1.00,3.94 L/h/kg,3.94 L/h/kg,10.30 L/h/kg,10.30 L/h/kg,,
O=C(COc1ccccc1Cl)NCCc1nc2ccccc2[nH]1 [Compound 40],0.86,19.50 L/h/kg,22.70 L/h/kg,,419.09 L/h/kg,,
CC(=O)NCCc1nc2ccccc2n1CCOc1ccccc1 [Compound 55],0.91,1.78 L/h/kg,1.94 L/h/kg,35.90 L/h/kg,39.06 L/h/kg,,
O=C(COc1ccc2ccccc2c1CO)NCCc1nc2ccccc2[nH]1 [Compound 46],0.77,24.70 L/h/kg,32.04 L/h/kg,757.00 L/h/kg,981.84 L/h/kg,,
O=C(CCOc1ccccc1)NCCc1c[nH]c2ccccc12 [Compound 58],0.84,14.20 L/h/kg,16.99 L/h/kg,536.00 L/h/kg,641.15 L/h/kg,,
O=C(COc1ccccc1F)NCCc1nc2ccccc2[nH]1 [Compound 39],0.94,7.03 L/h/kg,7.45 L/h/kg,125.00 L/h/kg,132.56 L/h/kg,,
COc1ccc(C(=O)Cn2c(CCNC(=O)COc3ccc4ccccc4c3Br)nc3ccccc32)cc1 [Compound 63],0.02,40.40 L/h/kg,"2,104.17 L/h/kg",50.10 L/h/kg,"2,609.38 L/h/kg",,
Cc1ccc2[nH]c(CCNC(=O)COc3ccc4ccccc4c3Br)nc2c1 [Compound 54],0.05,65.00 L/h/kg,"1,334.7 L/h/kg",528.00 L/h/kg,,,
O=Cc1c(OCC(=O)NCCc2nc3ccccc3[nH]2)ccc2ccccc12 [Compound 45],0.52,37.30 L/h/kg,71.18 L/h/kg,669.00 L/h/kg,"1,276.72 L/h/kg",,
O=C(COc1ccc2ccccc2c1O)NCCc1nc2ccccc2[nH]1 [Compound 47],0.72,,35.00 L/h/kg,655.00 L/h/kg,939.71 L/h/kg,,
COc1cccc(C(=O)CCn2c(CCNC(=O)COc3ccc4ccccc4c3Br)nc3ccccc32)c1 [Compound 62],0.02,125.00 L/h/kg,"5,186.72 L/h/kg",331.00 L/h/kg,,,
COC(=O)c1cccc2cc(OCC(=O)NCCc3nc4ccccc4[nH]3)ccc12 [Compound 14],,,,,,8.3 ± 2.1 µM,92%
COc1cc(OCC(=O)NCCc2nc3ccccc3[nH]2)ccc1[N+](=O)[O-] [Compound 16],,,,,,,62%
